These results are taken from patent US20030162694A1, “Novel treatment for pathological aggression” (priority 2002, published 2003).

For experiment [1], the system named is C57BL/6 mice. The following applies: chronic exposure (i.c.v.), low baseline aggressiveness (Lumley, Soc. Neurosci); cited from earlier work.
Experiment [2] has as its system mice. Conditions: mice (McAllister, 1990); cited from earlier work.
The subject of experiment [3] is SJL mice. Kind of experiment: social interaction test with a non-aggressive conspecific in long-term individually housed hyperaggressive mice (isolation-induced aggression). The format is in vivo. Conditions: for mice that attacked: vehicle 8 of 8. From the text: It is well-established that housing in isolation for significant periods of time will enhance the natural tendency of cage resident mice to attack an “intruder” mouse placed in their home cage. The isolation model in mice is the most appropriate model for screening drugs for anti-aggression potential. We tested whether acute exposure to the NAALADase inhibitor [2-[(pentafluorophenylmethyl) hydroxyphosphinyl]methyl-pentanedioic acid, administered prior to a social interaction test, would inhibit aggressive behavior in SJL mice that had been individually housed for eight months. [2-[(pentafluorophenylmethyl) hydroxyphosphinyl]methyl-pentanedioic acid (30 mg/kg, i.p.) was administered 30 minutes prior to a social interaction test to pharmacologically naive male mice which had been selected and behaviorally shaped to be hyperaggressive, and had consistently shown markedly aggressive behaviors in prior interactions with intruder mice. Administration of [2-[(pentafluorophenylmethyl) hydroxyphosphinyl]methyl-pentanedioic acid (30 mg/kg, i.p.) inhibited aggression, indicated by greater latencies to display tail-rattling, attack and bite, and fewer tail-rattling responses to a non-aggressive conspecific, relative to vehicle. In addition, fewer mice that received [2-[(pentafluorophenylmethyl) hydroxyphosphinyl]methyl-pentanedioic acid (30 mg/kg) initiated attack, relative to those that received vehicle.
We hypothesized that similar to the effects of NMDA antagonists, NAALADase inhibition and therefore increased NAAG, would inhibit aggressiveness under conditions of high basal levels of aggressiveness. We administered the NAALADase inhibitor [2-[(pentafluorophenylmethyl) hydroxyphosphinyl]methyl-pentanedioic acid prior to a social interaction test in a novel cage and measured behavioral responses to a non-aggressive conspecific; a novel cage was used to lower the levels of aggressiveness. The paradigm used was adapted from File (reviewed in Crawley, 2000).
Principles of laboratory animal care (NIH publication No. 85-23, revised 1985) were followed. […] In addition, these mice had been used to socially defeat mice that were used as subjects in numerous other studies. These highly aggressive SJL had no previous drug exposure. At the end of 8 months of training, subjects weighed 30-37 grams and had attack latencies of less than 30 sec when exposed to an obx. During the social interaction test, two C57BL/6 male mice (30-33 g; Jackson Laboratories), which were screened for non-aggressiveness and unfamiliar to the subjects, were used as stimulus mice.
[2-[(pentafluorophenylmethyl) hydroxyphosphinyl]methyl-pentanedioic acid, MW 390.2 (3 mg/kg or 30 mg/kg in 50 mM Hepes in 0.9% saline; pH 7.2; Guilford Pharmaceuticals) or vehicle (50 mM Hepes in 0.9% saline; pH 7.2) was administered intraperitoneally (i.p.; 10 ml/kg) 30 min. prior to a 4 min. social interaction test. Subject mice were placed in a novel cage (48×27×20 cm) along with a non-aggressive male conspecific and tested under low illumination (red lights) during the dark phase of their cycle. Methods for various social interaction tests reviewed in Crawley et al. (2000). Tests were videotaped and behaviors were scored using a computer program (Hindsight, Scott Weiss, UK), by two observers blind to the treatment. Behavioral measures included 1) measures of aggressiveness or threat: attack, bite, chase or follow, grooming conspecific, tail rattling 2) measures of exploratory and locomotor activity: walking, rearing, digging, 3) measures of defensiveness: defensive posture (crouch, upright) and flight. Details on behavioral measurements may be found in Grant and McIntosh, 1963; Lumley et al., 2000; Crawley, 2000.
One-way analysis of variance was performed for each behavioral measure with drug dose as the independent factor. Data were further probed using Dunnet=s test.

The subject of experiment [4] is individually housed mice. Conditions: cited from earlier work.

Regarding `O=C(O)CCC(CP(=O)(O)O)C(=O)O` (stereo not shown) [2-PMPA, 2-(phosphonomethyl)-pentanedioic acid], the aggressiveness result in experiment [1] is “increase aggressiveness”.
With `C[C@]12N[C@H](Cc3ccccc31)c1ccccc12` [dizocilpine], the aggression result in experiment [2] is recorded as “increased aggression”.
Regarding `O=C(O)CCC(CP(=O)(O)Cc1c(F)c(F)c(F)c(F)c1F)C(=O)O` (stereo not shown) [[2-[(pentafluorophenylmethyl) hydroxyphosphinyl]methyl-pentanedioic acid], the mice that attacked was 7 of 10 in experiment [3] (3 mg/kg) and 4 of 9 in experiment [3] (30 mg/kg). Also, in experiment [3] (30 mg/kg i.p., 30 min before 4 min test, relative to vehicle, F (2, 26)=2.36), the latency to attack entry is “increased latencies”. In experiment [3] (30 mg/kg i.p., 30 min before 4 min test, relative to vehicle, F (2, 26)=2.82), the latency to bite result is “increased latencies”. Also, the “latency to display tail-rattling” value in experiment [3] (30 mg/kg i.p., 30 min before 4 min test, relative to vehicle, F (2, 26)=7.41) is listed as “increased latencies”. Moreover, the “number of tail-rattling responses” value in experiment [3] (30 mg/kg, relative to vehicle, F (2, 26)=3.66) is “tended to display fewer tail-rattling responses”. Further, in experiment [3] (30 mg/kg, vehicle 100%), the “percent of mice that attacked the conspecific” value was 44%. Moreover, the defensive responses result in experiment [3] (3 or 30 mg/kg i.p., few mice displayed any) is listed as “no effect”. For the same compound, in experiment [3] (in mice displaying the behavior, 3 or 30 mg/kg i.p., F (2,18)=0.11), the number of attacks result was “no effect”. In addition, the number of bites result in experiment [3] (in mice displaying the behavior, 3 or 30 mg/kg i.p., F (2, 26)=0.31) was “no effect”. Also, in experiment [3] (relative to vehicle-treated mice, not significant), the “number of attacks in the 4 of 9 treated mice that attacked” value was “tended to have more attacks”. For the same compound, in experiment [3] (relative to vehicle, dose not stated), the “tail rattling responses as stated in the discussion” value was “more tail rattling responses than vehicle”.
For `c1ccc(C2(N3CCCCC3)CCCCC2)cc1` [PCP, phencyclidine], the aggressiveness result in experiment [4] (individually housed mice (Wilmot et al., 1987)) is listed as “increased aggressiveness”. In addition, the “number of mice that displayed attack” value in experiment [4] (individually housed mice) is “reduced the number of mice that displayed attack”.
